Experimental findings from patent US20100093018A1, “CELLS […] PROTEINS AND ASSAYS USING SUCH CELLS” (ACHILLION PHARMACEUTICALS, INC., priority 2007, published 2010) are described below.

The test system of experiment [1] is NNI-1^R (M414T). Kind of experiment: Susceptibility of NNI-1 resistant replicon cell line. Conditions: NNI-1^R (M414T) versus Huh-9-13. Type of experiment: cell-based, hepatitis C virus.
Experiment [2] has as its system ACH-806 resistant replicon cellular lines (806R). Kind of experiment: Susceptibility of ACH-806 resistant replicon cellular lines. In kind it is cell-based, hepatitis C virus. The following applies: for Fold change in EC50: versus Huh-9-13.
Experiment [3] deals with NI-1^R (S282T). Kind of experiment: Susceptibility of NI-1 resistant replicon cell line. In kind it is cell-based, hepatitis C virus. Conditions: NI-1^R (S282T) versus Huh-9-13.
Experiment [4] relates to Luc/NS3-A39V replicon. Kind of experiment: Luciferase replicon susceptibility, NS3 A39V. Type of experiment: cell-based, hepatitis C virus. The procedure: To investigate the genetic basis of resistance to ACH-806 in the resistant replicon cellular lines, specifically the role of C16S and A39V in NS3, and 1585T 1 in NS5B, we introduced these mutations separately into a nonselectable replicon containing a luciferase reporter gene. Following the transfection of the parental replicon RNA molecule and the C16S, A39V and I585T variant replicon RNA molecules into Huh-7 cells, the replication capacity of all replicons was determined as described in Method and Materials. Replicon RNA carrying the A39V mutation replicated as efficiently as its parent, whereas the C16S and I585T mutations caused a slight decrease in the replication capacity (about 75% that of the parental replicon). The susceptibility of these four replicons to ACH-806 as well as to other classes of inhibitors was compared side by side, and the results are summarized in Table 2.

Experiment [5] concerns HCV replicon. Kind of experiment: HCV replicon assay (Example 1). The following applies: Hepatitis C virus; Huh-7 cells expressing the HCV replicon. In kind it is cell-based. The procedure: The ability to inhibit viral replication of Hepatitis C can be tested using the HCV replicon expressed in cultured cells in which an HCV replicon construct has been incorporated. The HCV replicon system was described by Bartenschlager, et. al (Science, 285, pp. 110-113, 1999). The replicon system is predictive of in vivo activity against HCV; compounds that are active in humans uniformly evidence activity in the replicon assay.
In this assay HCV replicon containing cells are treated with different concentrations of the test compound to ascertain the ability of the test compound to suppress replication of the HCV replicon. As a positive control, HCV replicon-containing cells are treated with different concentrations of interferon alpha, a known inhibitor of HCV replication. The replicon assay system includes Neomycin Phosphotransferase (NPT) as a component of the replicon itself as a marker allowing convenient detection of the transcription of replicon gene products in the host cell. Cells in which the HCV replicon is actively replicating have high levels of NPT; the level of NPT is proportional to HCV replication. […] The NPT level of each sample may be measured using a captured ELISA. […]
HCV replicon-containing cells are examined under a microscope to ensure that cells growing well. […] The cells are counted. […]

For experiment [6], the system named is parental replicon cellular line, Huh-9-13. Nature of the experiment: Susceptibility of parental replicon cellular line. In kind it is cell-based, hepatitis C virus.

For `CCCCCOc1ccc(NC(=S)NC(=O)c2cccnc2)cc1C(F)(F)F` [ACH-806, 1-nicotinoyl-3-(4-(pentyloxy)-3-(trifluoromethyl)phenyl)thiourea], the “Fold change in EC50” value in experiment [1] stood at 0.9; in experiment [2] (806^R #6 (Selection 2), NS3 A39V), 18.6; in experiment [2] (806^R #8 (Selection 2), NS3 A39V), 9.5; in experiment [2] (806^R #9 (Selection 2), NS3 A39V), 11.5; in experiment [2] (806^R #22 (Selection 1), NS3 C16S), 13.9; in experiment [2] (806^R #23 (Selection 1), NS3 C16S), 18.6. The “Fold change in EC50” value in experiment [2] (806^R #24 (Selection 1), NS3 C16S) is given as 11.2; in experiment [2] (806^R #25 (Selection 1), NS3 C16S), 14.9; in experiment [2] (806^R #28 (Selection 1), NS3 C16S) it was 21.3; in experiment [3] it was 0.8; in experiment [6] (Parental cell line (Table 1)), 1.0; in experiment [6] (Parental cell line (Table 4)), 1.0. The “Average fold change in EC50” value in experiment [2] (average over 806^R cell lines) was found to be 14.9. In addition, the “Fold change in potency, EC50” value is listed as 14 in experiment [4] (Luc/NS3-A39V versus Luc/Parent replicon, one experiment) and 14.0 in experiment [4] ({}). Further, the “Fold change in potency, EC90” value in experiment [4] ({}) came to 13.7. Further, the EC50 in experiment [5] was found to be 14 nM; in experiment [6] (Hepatitis C virus, read-out: EC50 ± SD) it was 40 nM.
